Experimental data taken from paper PMC4782136 (Scientific Reports, 2016).
Where two headings read alike, the source gives them in different places. Residues, ends and D or L forms follow the SMILES beside them. *: point of attachment. Arachidoyl = CCCCCCCCCCCCCCCCCCCC(=O)*; Stearoyl = CCCCCCCCCCCCCCCCCC(=O)*; Palmitoyl = CCCCCCCCCCCCCCCC(=O)*

Assays:
[1] = tested on: influenza A/Puerto Rico/8/34 (H1N1); settings: /Puerto Rico/8/34, 24 h
in vitro = settings: dog
[2] = tested on: clinical isolate 690 (H3 subtype); experiment: microbe, parasite or virus in culture; assay type: cell-based; settings: Influenza A virus, read-out: IC50 ± SD, H3 (690)
influenza B virus = experiment: microbe, parasite or virus in culture; assay type: cell-based; settings: read-out: IC50 ± SD, B
[3] = tested on: influenza A/Aichi/2/68 (H3N2); experiment: microbe, parasite or virus in culture; assay type: cell-based; settings: H3N2, read-out: IC50 ± SD, H3N2
[4] = tested on: clinical isolate 699 (H3 subtype); experiment: microbe, parasite or virus in culture; assay type: cell-based; settings: Influenza A virus, read-out: IC50 ± SD, H3 (699)
[5] = tested on: influenza A/Puerto Rico/8/34 (H1N1); experiment: microbe, parasite or virus in culture; settings: H1N1, MDCK, read-out: IC50 ± SD

Row | Compound | IC50 [1] [µM] | CC50 at 48 h (in vitro) [µM] | further results
1 | CCCCCCCCCCCCCCCCCC(=O)N[C@@H](CCCCN)C(=O)N[C@@H](CCCCN)C(=O)N[C@@H](Cc1c[nH]c2ccccc12)C(=O)N[C@@H](CCCCN)C(=O)NCC(=O)NCC(=O)NCC(=O)N[C@@H](C)C(=O)N[C@@H](CCCNC(=N)N)C(=O)N[C@@H](CC(C)C)C(=O)N1CCC[C@H]1C(=O)N[C@@H](CCCNC(=N)N)C(N)=O [C18-Hp-GGG-Jp, C18-KKWKGGGARLPR] (Stearoyl-KKWKGGGARLPR-NH2) | 6.99 ± 2 | > 200 | 
2 | NC(=O)c1ncn([C@@H]2O[C@H](CO)[C@@H](O)[C@H]2O)n1 [Ribavirin, ribavirin] |  |  | IC50 [2]: 8.47 ± 3.01 µM; IC50 (influenza B virus): 6.71 ± 0.93 µM; IC50 [3]: 24.9 ± 1.1 µM; IC50 [4]: 4.92 ± 1.45 µM; IC50 [5]: 12.85 ± 0.08 µM
3 | CCCCCCCCCCCCCCCC(=O)N[C@@H](C)C(=O)N[C@@H](CCCNC(=N)N)C(=O)N[C@@H](CC(C)C)C(=O)N1CCC[C@H]1C(=O)N[C@@H](CCCNC(=N)N)C(=O)NCC(=O)NCC(=O)NCC(=O)N[C@@H](CCCCN)C(=O)N[C@@H](CCCCN)C(=O)N[C@@H](Cc1c[nH]c2ccccc12)C(=O)N[C@@H](CCCCN)C(N)=O [C16-Jp-GGG-Hp, C16-ARLPRGGGKKWK] (Palmitoyl-ARLPRGGGKKWK-NH2) | 6.79 ± 0.17 | > 200 | 
4 | CCCCCCCCCCCCCCCCCCCC(=O)N[C@@H](CCCCN)C(=O)N[C@@H](CCCCN)C(=O)N[C@@H](Cc1c[nH]c2ccccc12)C(=O)N[C@@H](CCCCN)C(=O)NCC(=O)NCC(=O)NCC(=O)N[C@@H](C)C(=O)N[C@@H](CCCNC(=N)N)C(=O)N[C@@H](CC(C)C)C(=O)N1CCC[C@H]1C(=O)N[C@@H](CCCNC(=N)N)C(N)=O [C20-Hp-GGG-Jp, C20-KKWKGGGARLPR] (Arachidoyl-KKWKGGGARLPR-NH2) | 5.22 ± 0.37 |  | CC50: > 200 µM
5 | CCCCCCCCCCCCCCCC(=O)N[C@@H](C)C(=O)N[C@@H](CCCNC(=N)N)C(=O)N[C@@H](CC(C)C)C(=O)N1CCC[C@H]1C(=O)N[C@@H](CCCNC(=N)N)C(=O)N[C@@H](CCCCN)C(=O)N[C@@H](CCCCN)C(=O)N[C@@H](Cc1c[nH]c2ccccc12)C(=O)N[C@@H](CCCCN)C(N)=O [C16-Jp-Hp, C16-ARLPRKKWK] (Palmitoyl-ARLPRKKWK-NH2) | 1.29 ± 0.4 | > 200 | 
6 | CCCCCCCCCCCCCCCCCC(=O)N[C@@H](C)C(=O)N[C@@H](CCCNC(=N)N)C(=O)N[C@@H](CC(C)C)C(=O)N1CCC[C@H]1C(=O)N[C@@H](CCCNC(=N)N)C(=O)NCC(=O)NCC(=O)NCC(=O)N[C@@H](CCCCN)C(=O)N[C@@H](CCCCN)C(=O)N[C@@H](Cc1c[nH]c2ccccc12)C(=O)N[C@@H](CCCCN)C(N)=O [C18-Jp-GGG-Hp, C18-ARLPRGGGKKWK] (Stearoyl-ARLPRGGGKKWK-NH2) | 5.09 ± 0.35 | > 200 | 
7 | CCCCCCCCCCCCCCCC(=O)N[C@@H](CCCCN)C(=O)N[C@@H](CCCCN)C(=O)N[C@@H](Cc1c[nH]c2ccccc12)C(=O)N[C@@H](CCCCN)C(=O)N[C@@H](C)C(=O)N[C@@H](CCCNC(=N)N)C(=O)N[C@@H](CC(C)C)C(=O)N1CCC[C@H]1C(=O)N[C@@H](CCCNC(=N)N)C(N)=O [C16-Hp-Jp, C16-KKWKARLPR] (Palmitoyl-KKWKARLPR-NH2) | 2.48 ± 0.24 | > 200 | 
8 | CCCCCCCCCCCCCCCCCCCC(=O)N[C@@H](C)C(=O)N[C@@H](CCCNC(=N)N)C(=O)N[C@@H](CC(C)C)C(=O)N1CCC[C@H]1C(=O)N[C@@H](CCCNC(=N)N)C(=O)NCC(=O)NCC(=O)NCC(=O)N[C@@H](CCCCN)C(=O)N[C@@H](CCCCN)C(=O)N[C@@H](Cc1c[nH]c2ccccc12)C(=O)N[C@@H](CCCCN)C(N)=O [C20-Jp-GGG-Hp, C20-ARLPRGGGKKWK] (Arachidoyl-ARLPRGGGKKWK-NH2) | 4.04 ± 0.02 |  | CC50: > 200 µM
9 | CCCCCCCCCCCCCCCC(=O)N[C@@H](CCCCN)C(=O)N[C@@H](CCCCN)C(=O)N[C@@H](Cc1c[nH]c2ccccc12)C(=O)N[C@@H](CCCCN)C(=O)NCC(=O)NCC(=O)NCC(=O)N[C@@H](C)C(=O)N[C@@H](CCCNC(=N)N)C(=O)N[C@@H](CC(C)C)C(=O)N1CCC[C@H]1C(=O)N[C@@H](CCCNC(=N)N)C(N)=O [C16-Hp-GGG-Jp, C16-KKWKGGGARLPR] (Palmitoyl-KKWKGGGARLPR-NH2) | 8.05 ± 0.52 | > 200 | 
